Results taken from patent US9573930B2 (Quanticel Pharmaceuticals, Inc., priority 2014, dated 2017).

biological target: full-length human LSD1 (Homo sapiens (Human), UniProt O60341); test: In vitro enzyme inhibition assay LSD-1 (TR-FRET); type: biochemical; settings: H3K4me1-biotin peptide
Protocol: This assay determines the ability of a test compound to inhibit LSD1 demethylase activity.
The enzymatic assay of LSD1 activity is based on Time Resolved-Fluorescence Resonance Energy Transfer (TR-FRET) detection.
The ability of the compounds disclosed herein to inhibit LSD1 activity was quantified and the respective IC50 value was determined.

Row | Compound | IC50 [nM]
1 | COc1c(F)cc(-c2c(-c3ccc(C#N)cc3)nc(N3CCC(N)CC3)n(C)c2=O)cc1F [Example 38, 4-[2-(4-aminopiperidyl)-5-(3,5-difluoro-4-methoxyphenyl)-1-methyl-6-oxohydropyrimidin-4-yl]benzenecarbonitrile] | < 100
2 | COc1ccc(-c2c(-c3ccc(C#N)cc3)nc(N3CCC(N)CC3)n(C)c2=O)cn1 [Example 3, 4-[2-(4-amino-piperidin-1-yl)-5-(6-methoxy-pyridin-3-yl)-1-methyl-6-oxo-1,6-dihydro-pyrimidin-4-yl]-benzonitrile] | < 100
3 | COc1ccc(-c2c(-c3ccc(C#N)c(F)c3)nc(N3CCC(N)CC3)n(C)c2=O)cc1 [Example 6, 4-[2-(4-amino-piperidin-1-yl)-5-(4-methoxy-phenyl)-1-methyl-6-oxo-1,6-dihydro-pyrimidin-4-yl]-2-fluoro-benzonitrile] | < 100
4 | COc1ccc(-c2c(-c3ccc(C#N)c(F)c3)nc(N3CCCNCC3)n(C)c2=O)cn1 [Example 61, 4-[2-[1,4]diazepan-1-yl-5-(6-methoxy-pyridin-3-yl)-1-methyl-6-oxo-1,6-dihydro-pyrimidin-4-yl]-2-fluoro-benzonitrile] | < 100
5 | Cn1cc2cc(-c3c(-c4ccc(C#N)c(F)c4)nc(N4CCC(N)CC4)n(C)c3=O)ccc2n1 [Example 37, 4-[2-(4-aminopiperidyl)-1-methyl-5-(2-methyl(2H-indazol-5-yl))-6-oxohydropyrimidin-4-yl]-2-fluorobenzenecarbonitrile] | < 100
6 | CN(C)c1ncc(-c2c(-c3ccc(C#N)c(F)c3)nc(N3CCC(N)CC3)n(C)c2=O)cn1 [Example 49, 4-[2-(4-amino-piperidin-1-yl)-2′-dimethylamino-1-methyl-6-oxo-1,6-dihydro-[5,5′]bipyrimidinyl-4-yl]-2-fluoro-benzonitrile] | < 100
7 | COc1ccc(-c2c(-c3ccc(C#N)c(F)c3)nc(N3CC[C@@H](N)C3)n(C)c2=O)cc1F [Example 27, 4-[2-((3R)-3-aminopyrrolidinyl)-5-(3-fluoro-4-methoxyphenyl)-1-methyl-6-oxohydropyrimidin-4-yl]-2-fluorobenzenecarbonitrile] | < 100
8 | COc1ccc(-c2c(-c3ccc(C#N)c(F)c3)nc(N3CCC(N)CC3)n(CC(N)=O)c2=O)cc1 [Example 16, 2-[2-(4-amino-piperidin-1-yl)-4-(4-cyano-3-fluoro-phenyl)-5-(4-methoxy-phenyl)-6-oxo-6H-pyrimidin-1-yl]-acetamide] | < 100
9 | COc1ccc(-c2c(-c3ccc(C#N)c(F)c3)nc(N3CC[C@H](N)C3)n(C)c2=O)cc1F [Example 29, 4-[2-((3S)-3-amino-pyrrolidin-1-yl)-5-(3-fluoro-4-methoxy-phenyl)-1-methyl-6-oxo-1,6-dihydro-pyrimidin-4-yl]-2-fluoro-benzonitrile] | < 100
10 | COc1ccc(-c2c(-c3ccc(C#N)c(F)c3)nc(N3CCC[C@@H](N)C3)n(C)c2=O)cc1F [Example 25, 4-[2-((3R)-3-aminopiperidyl)-5-(3-fluoro-4-methoxyphenyl)-1-methyl-6-oxohydropyrimidin-4-yl]-2-fluorobenzenecarbonitrile] | < 100
11 | Cn1c(N2CCC(N)CC2)nc(-c2ccc(C#N)cc2)c(-c2cnn(CC(F)(F)F)c2)c1=O [Example 36, 4-{2-(4-amino-piperidin-1-yl)-1-methyl-6-oxo-5-[1-(2,2,2-trifluoro-ethyl)-1H-pyrazol-4-yl]-1,6-dihydro-pyrimidin-4-yl}-benzonitrile] | < 100
12 | CCc1ccc(-c2c(-c3ccc(C#N)cc3)nc(N3CCC(N)CC3)n(C)c2=O)cn1 [Example 10, 4-[2-(4-amino-piperidin-1-yl)-5-(6-ethyl-pyridin-3-yl)-1-methyl-6-oxo-1,6-dihydro-pyrimidin-4-yl]-benzonitrile] | < 100
13 | COc1ccc(-c2c(-c3ccc(C#N)c(F)c3)nc(N(C)C3CCNCC3)n(C)c2=O)cc1 [Example 55, 2-fluoro-4-[5-(4-methoxy-phenyl)-1-methyl-2-(methyl-piperidin-4-yl-amino)-6-oxo-1,6-dihydro-pyrimidin-4-yl]-benzonitrile] | < 100
14 | CNC1CCN(c2nc(-c3ccc(C#N)c(F)c3)c(-c3ccc(OC)c(F)c3)c(=O)n2C)CC1 [Example 12, 2-fluoro-4-[5-(3-fluoro-4-methoxy-phenyl)-1-methyl-2-(4-methylamino-piperidin-1-yl)-6-oxo-1,6-dihydro-pyrimidin-4-yl]-benzonitrile] | < 100

Results, then the compound that gave them:

Row | IC50 [nM] | Compound
15 | < 100 | CN(C)C1CCN(c2nc(-c3ccc(C#N)c(F)c3)c(-c3ccc4cn(C)nc4c3)c(=O)n2C)CC1 [Example 80, 4-[2-(4-dimethylamino-piperidin-1-yl)-1-methyl-5-(2-methyl-2H-indazol-6-yl)-6-oxo-1,6-dihydro-pyrimidin-4-yl]-2-fluoro-benzonitrile]
16 | < 100 | CN(C)c1ccc(-c2c(-c3ccc(C#N)c(F)c3)nc(N3CCC(N)CC3)n(C)c2=O)cc1 [Example 59, 4-[2-(4-amino-piperidin-1-yl)-5-(4-dimethylamino-phenyl)-1-methyl-6-oxo-1,6-dihydro-pyrimidin-4-yl]-2-fluoro-benzonitrile]
17 | 100 to 1000 | Cn1c(N2CCC(N)CC2)nc(-c2ccncc2)c(-c2ccc3c(ccn3C)c2)c1=O [Example 116, 2-(4-amino-piperidin-1-yl)-3-methyl-5-(1-methyl-1H-indol-5-yl)-6-pyridin-4-yl-3H-pyrimidin-4-one]
18 | < 100 | CN(C)C1CCN(c2nc(-c3ccc(C#N)c(F)c3)c(-c3ccc4nn(C)cc4c3)c(=O)n2C)CC1 [Example 71, 4-[2-(4-dimethylamino-piperidin-1-yl)-1-methyl-5-(2-methyl-2H-indazol-5-yl)-6-oxo-1,6-dihydro-pyrimidin-4-yl]-2-fluoro-benzonitrile]
19 | < 100 | COc1ccc(-c2c(-c3ccc(C#N)c(F)c3)nc(N3CCC(N(C)C)CC3)n(C)c2=O)cn1 [Example 92, 4-[2-[4-(dimethylamino)piperidin-1-yl]-5-(6-methoxypyridin-3-yl)-1-methyl-6-oxopyrimidin-4-yl]-2-fluorobenzonitrile]
20 | < 100 | COc1ccc(-c2c(-c3ccc(C#N)c(F)c3)nc(N3CC(CN)C3)n(C)c2=O)cc1 [Example 69, 4-[2-(3-aminomethyl-azetidin-1-yl)-5-(4-methoxy-phenyl)-1-methyl-6-oxo-1,6-dihydro-pyrimidin-4-yl]-2-fluoro-benzonitrile]
21 | < 100 | CN(C)c1ccc(-c2c(-c3ccc(C#N)c(F)c3)nc(N3CCC(N)CC3)n(C)c2=O)cn1 [Example 57, 4-[2-(4-amino-piperidin-1-yl)-5-(6-dimethylamino-pyridin-3-yl)-1-methyl-6-oxo-1,6-dihydro-pyrimidin-4-yl]-2-fluoro-benzonitrile]
22 | < 100 | Cc1ccc(-c2c(-c3ccc(C#N)c(F)c3)nc(N3CCC(N(C)C)CC3)n(C)c2=O)cn1 [Example 82, 4-[2-(4-dimethylamino-piperidin-1-yl)-1-methyl-5-(6-methyl-pyridin-3-yl)-6-oxo-1,6-dihydro-pyrimidin-4-yl]-2-fluoro-benzonitrile]
23 | < 100 | Cn1c(N2CCC(N)CC2)nc(-c2ccc(C#N)c(F)c2)c(-c2cccc(F)c2)c1=O [Example 102, 4-[2-(4-aminopiperidin-1-yl)-5-(3-fluorophenyl)-1-methyl-6-oxopyrimidin-4-yl]-2-fluorobenzonitrile]
24 | < 100 | CNC1CCN(c2nc(-c3ccc(C#N)c(F)c3)c(-c3ccc(OC)nc3)c(=O)n2C)CC1 [Example 58, 2-fluoro-4-[5-(6-methoxy-pyridin-3-yl)-1-methyl-2-(4-methylamino-piperidin-1-yl)-6-oxo-1,6-dihydro-pyrimidin-4-yl]-benzonitrile]
25 | < 100 | Cn1c(N2CCC(N)CC2)nc(-c2ccc(C#N)c(F)c2)c(-c2ccc3[nH]ccc3c2)c1=O [Example 73, 4-[2-(4-amino-piperidin-1-yl)-5-(1H-indol-5-yl)-1-methyl-6-oxo-1,6-dihydro-pyrimidin-4-yl]-2-fluoro-benzonitrile]
26 | < 100 | Cn1c(N2CCC(N)CC2)nc(-c2ccc(C#N)c(F)c2)cc1=O [Example 108, 4-[2-(4-aminopiperidin-1-yl)-1-methyl-6-oxopyrimidin-4-yl]-2-fluorobenzonitrile]
27 | < 100 | Cn1c(N2CCC(N)CC2)nc(-c2ccc(C#N)c(F)c2)c(-c2ccc(N)cc2)c1=O [Example 89, 4-[5-(4-aminophenyl)-2-(4-aminopiperidin-1-yl)-1-methyl-6-oxopyrimidin-4-yl]-2-fluorobenzonitrile]
28 | < 100 | CNC1CCN(c2nc(-c3ccc(C#N)c(F)c3)c(-c3ccc4c(cnn4C)c3)c(=O)n2C)CC1 [Example 87, 2-fluoro-4-[1-methyl-2-[4-(methylamino)piperidin-1-yl]-5-(1-methylindazol-5-yl)-6-oxopyrimidin-4-yl]benzonitrile]
29 | < 100 | CNCC1CN(c2nc(-c3ccc(C#N)c(F)c3)c(-c3ccc(OC)cc3)c(=O)n2C)C1 [Example 70, 2-fluoro-4-[5-(4-methoxy-phenyl)-1-methyl-2-(3-methylaminomethyl-azetidin-1-yl)-6-oxo-1,6-dihydro-pyrimidin-4-yl]-benzonitrile]
30 | < 100 | COc1ccc(-c2c(-c3ccc(C#N)c(F)c3)nc(N3CC[C@H](N)[C@H](F)C3)n(C)c2=O)cc1 [Example 79, 4-[2-((4S,3R)-4-amino-3-fluoro-piperidin-1-yl)-5-(4-methoxy-phenyl)-1-methyl-6-oxo-1,6-dihydro-pyrimidin-4-yl]-2-fluoro-benzonitrile]
31 | < 100 | CN(C)C1CCN(c2nc(-c3ccc(C#N)c(F)c3)c(-c3ccc4cn[nH]c4c3)c(=O)n2C)CC1 [Example 84, 4-[2-(4-dimethylamino-piperidin-1-yl)-5-(2H-indazol-6-yl)-1-methyl-6-oxo-1,6-dihydro-pyrimidin-4-yl]-2-fluoro-benzonitrile]
32 | < 100 | Cn1c(N2CCC(N)CC2)nc(-c2ccc(C#N)c(F)c2)c(-c2ccc3cn[nH]c3c2)c1=O [Example 77, 4-[2-(4-amino-piperidin-1-yl)-5-(1H-indazol-6-yl)-1-methyl-6-oxo-1,6-dihydro-pyrimidin-4-yl]-2-fluoro-benzonitrile]
